Reference: PubChem BioAssay (NCI)
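Dose response: 5 concentrations. Exposure: 48 h. Format: 96-well plates. Endpoint: linear interpolation; highest concentration if not reached. GI50 marks 50% less growth. The concentration for full growth arrest is given as TGI.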

Legend:
Experiment in all cases: growth of human tumour cells (NCI), 48 h
OVCAR-8 ovarian = system: OVCAR-8 ovarian
HCT-116 colon = system: HCT-116 colon
LOX IMVI melanoma = system: LOX IMVI melanoma
HOP-92 NSCLC = system: HOP-92 NSCLC
ACHN renal = system: ACHN renal
KM12 colon = system: KM12 colon
HOP-62 NSCLC = system: HOP-62 NSCLC
DLD-1 colon = system: DLD-1 colon
CAKI-1 renal = system: CAKI-1 renal
KM20L2 colon = system: KM20L2 colon
MDA-MB-231 breast = system: MDA-MB-231 breast

Structure (SMILES) | TGI (OVCAR-8 ovarian) [µM] | TGI (HCT-116 colon) [µM] | TGI (LOX IMVI melanoma) [µM] | TGI (HOP-92 NSCLC) [µM] | TGI (ACHN renal) [µM] | TGI (KM12 colon) [µM] | TGI (HOP-62 NSCLC) [µM] | TGI (DLD-1 colon) [µM] | TGI (CAKI-1 renal) [µM] | TGI (KM20L2 colon) [µM] | TGI (MDA-MB-231 breast) [µM] | GI50 (HOP-92 NSCLC) [µM] | GI50 (MDA-MB-231 breast) [µM]
CS(=O)(=O)CSCSSCS(C)(=O)=O | > 100 | > 100 | 71.2 | 98.2 | > 100 | > 100 | > 100 | > 75.4 | > 57.2 | > 100 |  |  | 
Cc1cc(C)nc(NS(=O)(=O)c2ccc(Nc3c4ccccc4nc4c(C(=O)N5CCN(CCOS(C)(=O)=O)CC5)cccc34)cc2)n1 | > 100 | > 100 |  | > 100 | > 100 | > 100 | > 100 | > 100 | > 100 | > 100 |  |  | 
CCOC(=O)C1(C#N)C(c2ccccc2)CC(O)(c2ccc(Cl)cc2)C(C(=O)c2ccc(Cl)cc2)C1c1ccccc1 (configuration not stated) | > 100 | > 100 | > 100 |  | > 100 | > 100 | > 100 | > 100 | > 100 | > 100 |  |  | 
O=C(N/N=C(/CCN1CCCC1)CC(c1ccccc1)c1c(O)c2ccccc2oc1=O)c1ccncc1 (configuration not stated) | > 100 | > 100 | > 100 | > 100 | > 100 | > 100 | > 100 | > 100 | > 100 | > 100 |  |  | 
CC(C)N1CC2CC(CN(C(=O)c3ccccc3)C2)C1 | > 100 |  | > 100 | > 100 | > 100 | > 100 | > 100 |  | > 100 | > 100 |  |  | 
COC(=O)[C@@H]1CCCCC[C@H]2C(CO)=C(C)C(=O)C12 (some centres not stated) | > 100 | > 100 |  | > 100 | > 100 | > 100 | > 100 | > 100 | > 100 | > 100 |  |  | 
CCCCOc1ccc(OCCCCCCCCCC[N+](C)(C)C)cc1 | 22 | 9.31 | 3.81 | 3.65 |  | 2.97 | 13.7 | 21.5 | 16.6 | 3.87 |  |  | 
O=C(OCCN=c1c2ccccc2ccc2ccccc12)c1ccccc1 | > 100 | > 100 | > 100 | > 100 | > 100 | > 100 | > 100 |  | > 100 |  | > 100 |  | 
CCc1c(CNc2ccc(C(=O)NC(CC(=O)O)C(=O)O)cc2)ccc2nc(N)nc(N)c12 (configuration not stated) | > 1000 | > 1000 | > 1000 | > 1000 | > 1000 | > 1000 | > 1000 |  | > 1000 |  | > 1000 | > 1000 | > 1000
Cc1[nH]c(=O)nc(NCCNCCO)c1C(=O)Nc1cccc2cc3ccccc3cc12 | > 100 | > 100 | > 100 | > 100 | > 100 | > 100 | > 100 |  | > 100 |  | > 100 |  | 
COc1cc(C(c2c(O)c3ccccc3oc2=O)c2c(O)c3ccccc3oc2=O)cc(Br)c1O | 32.3 | 32.7 | 33.8 | 26.2 | 31.2 | 38.7 | 45.8 |  | 34.9 |  | 32.8 |  | 
